From US20020188122A1, “Novel compounds” (SmithKline Beecham Corporation, priority 1993, published 2002)

Key:
[1] = system: human PGHS-2 protein expression; test: Prostoglandin endoperoxide synthase-2 (PGHS-2) assay, protein expression in LPS stimulated human monocytes; assay type: cell-based
Protocol: The followiong assay describes a method for determining the inhibitory effects of compounds of Formula (I) on human PGHS-2 protein expression in LPS stimulated human monocytes
Human peripheal blood monocytes were isolated from buffy coats by centrifugation through Ficoll and Percoll gradients. Cells were seeded at 2×10^6/well in 24 well plates and allowed to adhere for 1 hour in RPMI supplemented with 1% human AB serum, 20 mM L-glutamine, Penicillin-Streptomycin and 10 mM HEPES. Compounds were added at various concentrations and incubated at 37° C. for 10 minutes. LPS was added at 50 ng/well (to induce enzyme expression) and incubated overnight at 37° C. The supernatant was removed and cells washed once in cold PBS. The cells were lysed in 100 μl of cold lysis buffer(50 mM Tris/HCl pH 7.5, 150 mM NaCl, 1% NP40, 0.5% sodium deoxycholate, 0.1% SDS, 300 ug/ml DNAse, 0.1% TRITON X-100, 1 mM PMSF, 1 mM leupeptin, 1 mM pepstatin). The lysate was centrifuged (10,000× g for 10 min. at 4° C.) to remove debris and the soluble fraction was subjected to SDS PAGE. analysis (12% gel). Protein separated on the gel were transferred onto nitrocellulose membrane by electrophoretic means for 2 hours at 60 volts. The membrane was pretreated for one hour in PBS/0.1% Tween 20 with 5% non-fat dry milk. […]

| melting point | Compound | other results |
| --- | --- | --- |
| – | CC(Cc1ccc(O)c(O)c1)C(C)Cc1ccc(O)c(O)c1 (stereo not shown) [NDGA] | inhibition of LPS induced PGHS-2 protein expression ([1]; up to 10 uM): inactive |
| – | C[C@@H]1C[C@H]2[C@@H]3CCC4=CC(=O)C=C[C@]4(C)[C@@]3(F)[C@@H](O)C[C@]2(C)[C@@]1(O)C(=O)CO [Dexamethasone] | inhibition of LPS induced PGHS-2 protein expression ([1]; rank order potency similar to that for inhibiting cytokine production): active |
| 193 to 194 °C | CNc1nccc(-c2c(-c3ccc(F)cc3)ncn2CCC#N)n1 [Example 93, 5-(2-Methylamino-4-pyrimidinyl)-4-(4-fluorophenyl)-1-(2-cyanoethyl)imidazole] | – |
| 228 to 230 °C | Nc1nccc(-c2c(-c3ccc(F)cc3)ncn2C2CCSCC2)n1 [Example 91, 5-(2-Amino-4-pyrimidinyl)-4-(4-fluorophenyl)-1-(tetrahydro-4-thiopyranyl)imidazole] | – |
